Test system: moderate-to-severe chronic spontaneous urticaria (CSU)
Assay: Phase 2 CSU study: itch severity score over 7 days (ISS7)
Format: in vivo, human
Details: for Non-responder n (%) (ISS7 reduction of 5 points or more) / OR for rilzabrutinib vs. placebo (ISS7 reduction of 5 points or more) / Responder n (%) (ISS7 reduction of 5 points or more) / Imputed non-responder n (%) (ISS7 reduction of 5 points or more) / RRD (%) for rilzabrutinib vs. placebo (ISS7 reduction of 5 points or more): Omalizumab-Naïve Population; for ISS7 Post-baseline Mean (SD): Omalizumab-Naïve, outlier removed
Text: The study comprises a 12 week, randomized, double-blind, placebo-controlled, multi-center, dose-ranging efficacy and safety phase, followed by a 40 week open label extension (OLE) phase (see FIG. 1). The study consists of three phases and an optional OLE phase. […] Clinically, CSU is characterized by the spontaneous and recurrent appearance of pruritic hives. The proposed primary endpoints were the UAS7 at Week 12 in EU and EU reference countries and the ISS7 in the US. Regardless of where a participant was from, all assessments were the same. The UAS7 score is a composite score containing both the HSS7 and the ISS7. This allowed a global assessment of the two key components of urticaria: hives and itch. […] The UAS is a validated PRO measure. […] The daily UAS scores range from 0 to 6 point/day. […] Patients were to complete the UAS using the e-diary. […] The following secondary endpoints were to be analyzed using the same approach as for the primary endpoint: • Change from baseline in UAS7 at Week 4 • Change from baseline in UAS7 at Week 12 (for US and US reference countries) • Change from baseline in ISS7 at Week 12 (except US and US reference countries) • Change from baseline in HSS7 at Week 12

Compound: CC(C)(C=C(C#N)C(=O)N1CCC[C@@H](n2nc(-c3ccc(Oc4ccccc4)cc3F)c3c(N)ncnc32)C1)N1CCN(C2COC2)CC1 [rilzabrutinib, (R)-2-[3-[4-amino-3-(2-fluoro-4-phenoxy-phenyl)pyrazolo[3,4-d]pyrimidin-1-yl]piperidine-1-carbonyl]-4-methyl-4-[4-(oxetan-3-yl)piperazin-1-yl]pent-2-enenitrile]
- Non-responder n (%) (ISS7 reduction of 5 points or more) (400 mg QPM, Week 10): 14 (37.8) n (%)
- OR for rilzabrutinib vs. placebo (ISS7 reduction of 5 points or more) (400 mg QPM, Week 10): 1.614
- Responder n (%) (ISS7 reduction of 5 points or more) (400 mg QPM, Week 10): 23 (62.2) n (%)
- Imputed non-responder n (%) (ISS7 reduction of 5 points or more) (400 mg QPM, Week 11): 7 (18.9) n (%)
- Non-responder n (%) (ISS7 reduction of 5 points or more) (400 mg QPM, Week 11): 17 (45.9) n (%)
- OR for rilzabrutinib vs. placebo (ISS7 reduction of 5 points or more) (400 mg QPM, Week 11): 0.932
- RRD (%) for rilzabrutinib vs. placebo (ISS7 reduction of 5 points or more) (400 mg QPM, Week 11): −1.7%
- Responder n (%) (ISS7 reduction of 5 points or more) (400 mg QPM, Week 11): 20 (54.1) n (%)
- Imputed non-responder n (%) (ISS7 reduction of 5 points or more) (400 mg QPM, Week 12): 10 (27.0) n (%)
- Non-responder n (%) (ISS7 reduction of 5 points or more) (400 mg QPM, Week 12): 21 (56.8) n (%)
- OR for rilzabrutinib vs. placebo (ISS7 reduction of 5 points or more) (400 mg QPM, Week 12): 0.851
- RRD (%) for rilzabrutinib vs. placebo (ISS7 reduction of 5 points or more) (400 mg QPM, Week 12): −4.2%
- Responder n (%) (ISS7 reduction of 5 points or more) (400 mg QPM, Week 12): 16 (43.2) n (%)
- Imputed non-responder n (%) (ISS7 reduction of 5 points or more) (400 mg TID, Week 1): 0 n (%)
- Non-responder n (%) (ISS7 reduction of 5 points or more) (400 mg TID, Week 1): 13 (37.1) n (%)
- OR for rilzabrutinib vs. placebo (ISS7 reduction of 5 points or more) (400 mg TID, Week 1): 5.851
- RRD (%) for rilzabrutinib vs. placebo (ISS7 reduction of 5 points or more) (400 mg TID, Week 1): 40.1%
- Responder n (%) (ISS7 reduction of 5 points or more) (400 mg TID, Week 1): 22 (62.9) n (%)
- Imputed non-responder n (%) (ISS7 reduction of 5 points or more) (400 mg TID, Week 2): 0 n (%)
- Non-responder n (%) (ISS7 reduction of 5 points or more) (400 mg TID, Week 2): 12 (34.3) n (%)
- OR for rilzabrutinib vs. placebo (ISS7 reduction of 5 points or more) (400 mg TID, Week 2): 4.876
- RRD (%) for rilzabrutinib vs. placebo (ISS7 reduction of 5 points or more) (400 mg TID, Week 2): 36.4%
- Responder n (%) (ISS7 reduction of 5 points or more) (400 mg TID, Week 2): 23 (65.7) n (%)
- Imputed non-responder n (%) (ISS7 reduction of 5 points or more) (400 mg TID, Week 3): 0 n (%)
- Non-responder n (%) (ISS7 reduction of 5 points or more) (400 mg TID, Week 3): 12 (34.3) n (%)
- OR for rilzabrutinib vs. placebo (ISS7 reduction of 5 points or more) (400 mg TID, Week 3): 3.637
- RRD (%) for rilzabrutinib vs. placebo (ISS7 reduction of 5 points or more) (400 mg TID, Week 3): 34.3%
- Responder n (%) (ISS7 reduction of 5 points or more) (400 mg TID, Week 3): 23 (65.7) n (%)
- Imputed non-responder n (%) (ISS7 reduction of 5 points or more) (400 mg TID, Week 4): 3 (8.6) n (%)
- Non-responder n (%) (ISS7 reduction of 5 points or more) (400 mg TID, Week 4): 11 (31.4) n (%)
- OR for rilzabrutinib vs. placebo (ISS7 reduction of 5 points or more) (400 mg TID, Week 4): 2.777
- RRD (%) for rilzabrutinib vs. placebo (ISS7 reduction of 5 points or more) (400 mg TID, Week 4): 25.1%
- Responder n (%) (ISS7 reduction of 5 points or more) (400 mg TID, Week 4): 24 (68.6) n (%)
- Imputed non-responder n (%) (ISS7 reduction of 5 points or more) (400 mg TID, Week 5): 2 (5.7) n (%)
- Non-responder n (%) (ISS7 reduction of 5 points or more) (400 mg TID, Week 5): 10 (28.6) n (%)
- OR for rilzabrutinib vs. placebo (ISS7 reduction of 5 points or more) (400 mg TID, Week 5): 2.535
- RRD (%) for rilzabrutinib vs. placebo (ISS7 reduction of 5 points or more) (400 mg TID, Week 5): 22.7%
- Responder n (%) (ISS7 reduction of 5 points or more) (400 mg TID, Week 5): 25 (71.4) n (%)
- Imputed non-responder n (%) (ISS7 reduction of 5 points or more) (400 mg TID, Week 6): 4 (11.4) n (%)
- Non-responder n (%) (ISS7 reduction of 5 points or more) (400 mg TID, Week 6): 15 (42.9) n (%)
- OR for rilzabrutinib vs. placebo (ISS7 reduction of 5 points or more) (400 mg TID, Week 6): 1.563
- Responder n (%) (ISS7 reduction of 5 points or more) (400 mg TID, Week 6): 20 (57.1) n (%)
- Imputed non-responder n (%) (ISS7 reduction of 5 points or more) (400 mg TID, Week 7): 5 (14.3) n (%)
- Non-responder n (%) (ISS7 reduction of 5 points or more) (400 mg TID, Week 7): 11 (31.4) n (%)
- OR for rilzabrutinib vs. placebo (ISS7 reduction of 5 points or more) (400 mg TID, Week 7): 2.715
- RRD (%) for rilzabrutinib vs. placebo (ISS7 reduction of 5 points or more) (400 mg TID, Week 7): 23.5%
- Responder n (%) (ISS7 reduction of 5 points or more) (400 mg TID, Week 7): 24 (68.6) n (%)
- Imputed non-responder n (%) (ISS7 reduction of 5 points or more) (400 mg TID, Week 8): 7 (20.0) n (%)
- Non-responder n (%) (ISS7 reduction of 5 points or more) (400 mg TID, Week 8): 12 (34.3) n (%)
- OR for rilzabrutinib vs. placebo (ISS7 reduction of 5 points or more) (400 mg TID, Week 8): 1.891
- RRD (%) for rilzabrutinib vs. placebo (ISS7 reduction of 5 points or more) (400 mg TID, Week 8): 16.1%
- Responder n (%) (ISS7 reduction of 5 points or more) (400 mg TID, Week 8): 23 (65.7) n (%)
- Imputed non-responder n (%) (ISS7 reduction of 5 points or more) (400 mg TID, Week 9): 6 (17.1) n (%)
- Non-responder n (%) (ISS7 reduction of 5 points or more) (400 mg TID, Week 9): 11 (31.4) n (%)
- OR for rilzabrutinib vs. placebo (ISS7 reduction of 5 points or more) (400 mg TID, Week 9): 2.956
- RRD (%) for rilzabrutinib vs. placebo (ISS7 reduction of 5 points or more) (400 mg TID, Week 9): 25.1%
- Responder n (%) (ISS7 reduction of 5 points or more) (400 mg TID, Week 9): 24 (68.6) n (%)
- Imputed non-responder n (%) (ISS7 reduction of 5 points or more) (400 mg TID, Week 10): 5 (14.3) n (%)
- Non-responder n (%) (ISS7 reduction of 5 points or more) (400 mg TID, Week 10): 12 (34.3) n (%)
- OR for rilzabrutinib vs. placebo (ISS7 reduction of 5 points or more) (400 mg TID, Week 10): 1.910
- RRD (%) for rilzabrutinib vs. placebo (ISS7 reduction of 5 points or more) (400 mg TID, Week 10): 15.5%
- Responder n (%) (ISS7 reduction of 5 points or more) (400 mg TID, Week 10): 23 (65.7) n (%)
- Imputed non-responder n (%) (ISS7 reduction of 5 points or more) (400 mg TID, Week 11): 4 (11.4) n (%)
- Non-responder n (%) (ISS7 reduction of 5 points or more) (400 mg TID, Week 11): 10 (28.6) n (%)
- OR for rilzabrutinib vs. placebo (ISS7 reduction of 5 points or more) (400 mg TID, Week 11): 1.951
- RRD (%) for rilzabrutinib vs. placebo (ISS7 reduction of 5 points or more) (400 mg TID, Week 11): 15.5%
- Responder n (%) (ISS7 reduction of 5 points or more) (400 mg TID, Week 11): 25 (71.4) n (%)
- Imputed non-responder n (%) (ISS7 reduction of 5 points or more) (400 mg TID, Week 12): 8 (22.9) n (%)
- Non-responder n (%) (ISS7 reduction of 5 points or more) (400 mg TID, Week 12): 15 (42.9) n (%)
- OR for rilzabrutinib vs. placebo (ISS7 reduction of 5 points or more) (400 mg TID, Week 12): 1.469
- Responder n (%) (ISS7 reduction of 5 points or more) (400 mg TID, Week 12): 20 (57.1) n (%)
- ISS7 Post-baseline Mean (SD) (400 mg BID, Week 2): 10.32 (5.64)
- ISS7 Post-baseline Mean (SD) (400 mg BID, Week 3): 9.16 (6.09)
- ISS7 Post-baseline Mean (SD) (400 mg BID, Week 4): 8.32 (6.02)
- ISS7 Post-baseline Mean (SD) (400 mg BID, Week 5): 8.88 (6.81)
- ISS7 Post-baseline Mean (SD) (400 mg BID, Week 6): 8.85 (6.40)
- ISS7 Post-baseline Mean (SD) (400 mg BID, Week 7): 8.21 (6.16)
- ISS7 Post-baseline Mean (SD) (400 mg BID, Week 8): 7.33 (6.55)
- ISS7 Post-baseline Mean (SD) (400 mg BID, Week 9): 7.63 (7.11)
- ISS7 Post-baseline Mean (SD) (400 mg BID, Week 10): 8.17 (7.29)
- ISS7 Post-baseline Mean (SD) (400 mg BID, Week 11): 7.93 (6.94)
- ISS7 Post-baseline Mean (SD) (400 mg BID, Week 12): 8.09 (6.95)
- ISS7 Post-baseline Mean (SD) (400 mg QPM, Week 1): 13.08 (4.52)
- ISS7 Post-baseline Mean (SD) (400 mg QPM, Week 3): 11.60 (4.68)
- ISS7 Post-baseline Mean (SD) (400 mg QPM, Week 4): 11.39 (4.79)
- ISS7 Post-baseline Mean (SD) (400 mg QPM, Week 5): 11.00 (4.68)
- ISS7 Post-baseline Mean (SD) (400 mg QPM, Week 6): 10.27 (5.26)
- ISS7 Post-baseline Mean (SD) (400 mg QPM, Week 7): 10.68 (5.34)
- ISS7 Post-baseline Mean (SD) (400 mg QPM, Week 8): 10.72 (5.26)
- ISS7 Post-baseline Mean (SD) (400 mg QPM, Week 10): 10.43 (5.30)
- ISS7 Post-baseline Mean (SD) (400 mg QPM, Week 11): 11.03 (5.55)
